Earlier results, collected in publication PMC7395068, “The evolution of strategies to minimise the risk of human drug-induced liver injury (DILI) in drug discovery and development” (Archives of Toxicology, 2020).
Read-outs that look alike come from different tables or passages of the source. Where a SMILES comes first, the peptide text is derived from it. [ ]: non-standard residue; d: D form. d(hArg(Et2)) = CCN=C(NCC)NCCCC[C@@H](N)C(=O)O; hArg(Et2) = CCN=C(NCC)NCCCC[C@H](N)C(=O)O; dPhe(4-Cl) = N[C@H](Cc1ccc(Cl)cc1)C(=O)O; d2Nal = N[C@H](Cc1ccc2ccccc2c1)C(=O)O; d3Pal = N[C@H](Cc1cccnc1)C(=O)O

Settings: cited from earlier work
[1] = binary in vivo human DILI call, ref Chen 2016
[2] = human DILI, LTKB DILIrank category, ref Chen 2016

SMILES | DILI +VE (5-8), DILI -VE (-4) [1] | DILI severity category [2] | DILI +VE (5-8), DILI -VE (-4) (in vivo) | DILI severity category (in vivo)
CN[C@@H]1CCc2[nH]c3ccc(C(N)=O)cc3c2C1 [frovatriptan] | -VE | vNo-DILI-Concern | – | –
C[C@]12CC[C@@H]3c4ccc(O)cc4C[C@@H](CCCCCCCCC[S+]([O-])CCCC(F)(F)C(F)(F)F)[C@H]3[C@@H]1CC[C@@H]2O (stereo partly drawn) [fulvestrant] | -VE | Ambiguous DILI-concern | – | –
CNC[C@H](O)[C@@H](O)[C@H](O)[C@H](O)CO.CNC[C@H](O)[C@@H](O)[C@H](O)[C@H](O)CO.O=C([O-])CN(CCN(CC(=O)[O-])CC(=O)O)CCN(CC(=O)O)C(COCc1ccccc1)C(=O)[O-].[Gd+3] (stereo not drawn) [gadobenate dimeglumine] | – | – | -VE | vNo-DILI-Concern
CNC(=O)CN(CCN(CCN(CC(=O)[O-])CC(=O)NC)CC(=O)[O-])CC(=O)[O-].[Gd+3] [gadodiamide] | – | – | -VE | Ambiguous DILI-concern
O=C([O-])CN(CCN(CC(=O)[O-])CC(COP(=O)([O-])OC1CCC(c2ccccc2)(c2ccccc2)CC1)N(CC(=O)[O-])CC(=O)[O-])CC(=O)[O-].[Gd+3].[Na+].[Na+].[Na+] (stereo not drawn) [gadofosveset trisodium] | – | – | -VE | vNo-DILI-Concern
CNC[C@H](O)[C@@H](O)[C@H](O)[C@H](O)CO.CNC[C@H](O)[C@@H](O)[C@H](O)[C@H](O)CO.O=C([O-])CN(CCN(CC(=O)[O-])CC(=O)O)CCN(CC(=O)[O-])CC(=O)O.[Gd+3] [gadopentetate dimeglumine] | – | – | -VE | vNo-DILI-Concern
CC(O)CN1CCN(CC(=O)[O-])CCN(CC(=O)[O-])CCN(CC(=O)[O-])CC1.[Gd+3] (stereo not drawn) [gadoteridol] | – | – | -VE | vNo-DILI-Concern
COCCNC(=O)CN(CCN(CCN(CC(=O)[O-])CC(=O)NCCOC)CC(=O)[O-])CC(=O)[O-].[Gd+3] [gadoversetamide] | – | – | -VE | vNo-DILI-Concern
O=[N+]([O-])[O-].O=[N+]([O-])[O-].O=[N+]([O-])[O-].[Ga+3] [gallium nitrate] | -VE | Ambiguous DILI-concern | – | –
O=C(O)CCCO [gamma hydroxybutyric acid] | -VE | vNo-DILI-Concern | – | –
CCN=C(NCC)NCCCC[C@H](NC(=O)[C@H](CC(C)C)NC(=O)[C@@H](CCCCNC(=NCC)NCC)NC(=O)[C@H](Cc1ccc(O)cc1)NC(=O)[C@H](CO)NC(=O)[C@@H](Cc1cccnc1)NC(=O)[C@@H](Cc1ccc(Cl)cc1)NC(=O)[C@@H](Cc1ccc2ccccc2c1)NC(C)=O)C(=O)N1CCC[C@H]1C(=O)N[C@H](C)C(N)=O [ganirelix acetate] (Ac-[d2Nal][dPhe(4-Cl)][d3Pal]SY[d(hArg(Et2))]L[hArg(Et2)]P[dA]-NH2) | – | – | -VE | vNo-DILI-Concern
Nc1ccn([C@@H]2O[C@H](CO)[C@@H](O)C2(F)F)c(=O)n1 [gemcitabine] | +VE | vMost-DILI-Concern | – | –
CC(C)C[C@H](NC(=O)[C@@H](COC(C)(C)C)NC(=O)[C@H](Cc1ccc(O)cc1)NC(=O)[C@H](CO)NC(=O)[C@H](Cc1c[nH]c2ccccc12)NC(=O)[C@H](Cc1cnc[nH]1)NC(=O)[C@@H]1CCC(=O)N1)C(=O)N[C@@H](CCCNC(=N)N)C(=O)N1CCC[C@H]1C(=O)NNC(N)=O [goserelin] | -VE | Ambiguous DILI-concern | – | –
CN1C2CCCC1CC(NC(=O)c1nn(C)c3ccccc13)C2 (stereo not drawn) [granisetron] | -VE | Ambiguous DILI-concern | – | –
N=C(N)NC(=O)Cc1c(Cl)cccc1Cl [guanfacine] | -VE | Ambiguous DILI-concern | – | –
N=C(N)N [guanidine] | – | – | -VE | Ambiguous DILI-concern
CCCCCCCCCC(=O)OC1(c2ccc(Cl)cc2)CCN(CCCC(=O)c2ccc(F)cc2)CC1 [haloperidol decanoate] | -VE | Ambiguous DILI-concern | – | –
NCCc1cnc[nH]1.O=P(O)(O)O.O=P(O)(O)O [histamine diphosphate] | – | – | -VE | vNo-DILI-Concern
CCNC(=O)[C@@H]1CCCN1C(=O)[C@H](CCCNC(=N)N)NC(=O)[C@H](CC(C)C)NC(=O)[C@@H](Cc1cn(Cc2ccccc2)cn1)NC(=O)[C@H](Cc1ccc(O)cc1)NC(=O)[C@H](CO)NC(=O)[C@H](Cc1c[nH]c2ccccc12)NC(=O)[C@H](Cc1cnc[nH]1)NC(=O)[C@@H]1CCC(=O)N1 [histrelin acetate] | -VE | Ambiguous DILI-concern | – | –
C/C1=C2/[N-][C@H]([C@H](CC(N)=O)[C@@]2(C)CCC(=O)NC[C@@H](C)OP(=O)([O-])O[C@H]2[C@@H](O)[C@@H](n3cnc4cc(C)c(C)cc43)O[C@@H]2CO)[C@]2(C)N=C(/C(C)=C3N=C(/C=C4N=C1[C@@H](CCC(N)=O)C\4(C)C)[C@@H](CCC(N)=O)[C@]\3(C)CC(N)=O)[C@@H](CCC(N)=O)[C@]2(C)CC(N)=O.[Co+3].[OH-] [hydroxocobalamin] | -VE | Ambiguous DILI-concern | – | –

SMILES | DILI +VE (5-8), DILI -VE (-4) [1] | DILI severity category [2] | DILI +VE (5-8), DILI -VE (-4) (in vivo) | DILI severity category (in vivo)
CCN(CCO)CCCC(C)Nc1ccnc2cc(Cl)ccc12 (stereo not drawn) [hydroxychloroquine] | +VE | vLess-DILI-Concern | – | –
CCCCCC(=O)O[C@]1(C(C)=O)CC[C@H]2[C@@H]3CCC4=CC(=O)CC[C@]4(C)[C@H]3CC[C@@]21C [hydroxyprogesterone caproate] | -VE | Ambiguous DILI-concern | – | –
CCCCCN(C)CCC(O)(P(=O)(O)O)P(=O)(O)O [ibandronate] | -VE | vNo-DILI-Concern | – | –
CCCCCCCN(CC)CCCC(O)c1ccc(NS(C)(=O)=O)cc1 (stereo not drawn) [ibutilide] | – | – | -VE | vNo-DILI-Concern
COc1cc(C(C)=O)ccc1OCCCN1CCC(c2noc3cc(F)ccc23)CC1 [iloperidone] | -VE | Ambiguous DILI-concern | – | –
CC1Cc2ccccc2N1NC(=O)c1ccc(Cl)c(S(N)(=O)=O)c1 (stereo not drawn) [indapamide] | -VE | Ambiguous DILI-concern | – | –
CC1(C)C(/C=C/C=C/C=C/C=C2\N(CCCCS(=O)(=O)O)c3ccc4ccccc4c3C2(C)C)=[N+](CCCCS(=O)(=O)[O-])c2ccc3ccccc3c21 [indocyanine green] | -VE | vNo-DILI-Concern | – | –
O=C(CCCCC(=O)Nc1c(I)cc(I)c(C(=O)O)c1I)Nc1c(I)cc(I)c(C(=O)O)c1I [iodipamide meglumine] | -VE | vNo-DILI-Concern | – | –
CNC(=O)c1c(I)c(NC(C)=O)c(I)c(C(=O)O)c1I [iothalamate sodium] | -VE | vNo-DILI-Concern | – | –
CCc1c2c(nc3ccc(OC(=O)N4CCC(N5CCCCC5)CC4)cc13)-c1cc3c(c(=O)n1C2)COC(=O)[C@]3(O)CC [irinotecan] | – | – | +VE | vLess-DILI-Concern
CC(C)Nc1ncccn1 [isaxonine] | +VE | vMost-DILI-Concern | – | –
O=[N+]([O-])O[C@@H]1CO[C@H]2[C@@H]1OC[C@@H]2O [isorbide mononitrate] | – | – | -VE | Ambiguous DILI-concern
CC[C@H](C)[C@H]1O[C@]2(CC[C@@H]1C)C[C@@H]1C[C@@H](C/C=C(\C)[C@@H](O[C@H]3C[C@H](OC)[C@@H](O[C@H]4C[C@H](OC)[C@@H](O)[C@H](C)O4)[C@H](C)O3)[C@@H](C)/C=C/C=C3\CO[C@@H]4[C@H](O)C(C)=C[C@@H](C(=O)O1)[C@]34O)O2 [ivermectin] | +VE | vLess-DILI-Concern | – | –
C/C(=C\c1csc(C)n1)[C@@H]1C[C@@H]2O[C@]2(C)CCC[C@H](C)[C@H](O)[C@@H](C)C(=O)C(C)(C)[C@@H](O)CC(=O)N1 [ixabepilone] | -VE | Ambiguous DILI-concern | – | –
CNC1(c2ccccc2Cl)CCCCC1=O (stereo not drawn) [ketamine] | +VE | vLess-DILI-Concern | – | –
C[N+](C)(C)C[C@H](O)CC(=O)[O-] [l-carnitine] | -VE | vNo-DILI-Concern | – | –
N[C@@H](CS)C(=O)O [l-cysteine] | – | – | -VE | Ambiguous DILI-concern
CSCC[C@H](N)C(=O)O [l-methionine] | -VE | vNo-DILI-Concern | – | –
CC(C)[C@@H]1NC(=O)[C@H](CCCCN)NC(=O)[C@@H](Cc2c[nH]c3ccccc23)NC(=O)[C@H](Cc2ccc(O)cc2)NC(=O)[C@@H](NC(=O)[C@H](N)Cc2ccc3ccccc3c2)CSSC[C@@H](C(=O)N[C@H](C(N)=O)[C@@H](C)O)NC1=O [lanreotide acetate] | -VE | Ambiguous DILI-concern | – | –
